Values of other authors in patent US5891679A, “TNF-alpha muteins and a process for preparing them” (priority 1993, dated 1999).
Entries after “also recorded” stand apart in the source; their conditions may differ.

Assays:
LPS-induced shock = settings: cited from earlier work
L929 cells = settings: cited from earlier work

Substance: uromodulin: glycoprotein which binds TNF-α via its lectin-like domain
- effect on LPS-/TNF-/endotoxin-induced shock in vivo (LPS-induced shock): able to potently inhibit the TNF-induced shock in vivo; also recorded: able to potently inhibit the LPS-induced shock in vivo
- effect on TNF-α cytotoxic/tumoricidal activity (L929 cells): does not block the tumoricidal activity of TNF-α
